Assay results published in patent publication EP0908457B1, “3-(1,2-benzisothiazol- and isoxazol-5-Y1)-2,4(1H,3H)-pyrimidinedione or thione and 3-(1,2-benzisothiazol- and isoxazol-5-y1)-4(3H)-pyrimidinone or thione herbicidal agents” (BASF AKTIENGESELLSCHAFT, priority 1997, dated 1999).
Values joined by “and” are separate entries in the source; they are usually repeats but may differ in a detail not shown here. Equal values may be shown once. Where a name gives a salt, the structure may show the parent alone.

What was measured:
Assay type in all cases: in vivo
[1] = system: Cyperus serotinus, Rottb.; test: Preemergence weed control under flooded paddy conditions, CYPSE (Flatsedge); conditions: for CYPSE: preemergence weeds, herbicidal effect rating 0-9, three to four weeks after treatment; for CYPSE herbicidal rating: preemergence, rated three to four weeks after treatment
[2] = system: Cyperus iria; test: Preemergence weed control under flooded paddy conditions, CYPIR (Rice Flatsedge); conditions: flooded paddy; for CYPIR: preemergence weeds, herbicidal effect rating 0-9, three to four weeks after treatment; for CYPIR herbicidal rating: preemergence, rated three to four weeks after treatment
[3] = system: Echinochloa oryzoides (Ard.) Fritsch.; test: Preemergence weed control under flooded paddy conditions, ECHORC (Watergrass (Calif.)); conditions: for ECHORC: preemergence weeds, herbicidal effect rating 0-9, three to four weeks after treatment; for ECHORC / ECHORC herbicidal rating: flooded paddy; for ECHORC herbicidal rating: preemergence, rated three to four weeks after treatment; on herbicidal effect rating, ECHORC: meaning of each grade not given here
[4] = system: Monochoria vaginalis, Presl.; test: Preemergence weed control under flooded paddy conditions, MOOVA (Monochoria); conditions: for MOOVA: preemergence weeds, herbicidal effect rating 0-9, three to four weeks after treatment; for MOOVA / MOOVA herbicidal rating: flooded paddy; for MOOVA herbicidal rating: preemergence, rated three to four weeks after treatment; on herbicidal effect rating, MOOVA: meaning of each grade not given here
[5] = system: Sagittaria pygmaea, L.; test: Preemergence weed control under flooded paddy conditions, SAGPY (Arrowhead (Pygmaea)); conditions: for SAGPY herbicidal rating: preemergence, flooded paddy, rated three to four weeks after treatment; on herbicidal effect rating, SAGPY: meaning of each grade not given here

Row | Structure (SMILES) | CYPIR ([2]; 0.0320 kg/ha) | CYPIR ([2]; 0.0620 kg/ha) | CYPIR ([2]; 0.1250 kg/ha) | CYPIR ([2]; 0.2500 kg/ha) | ECHORC ([3]; 0.0320 kg/ha) | ECHORC ([3]; 0.0620 kg/ha) | ECHORC ([3]; 0.1250 kg/ha) | ECHORC ([3]; 0.2500 kg/ha) | MOOVA ([4]; 0.0620 kg/ha) | MOOVA ([4]; 0.1250 kg/ha) | MOOVA ([4]; 0.2500 kg/ha) | SAGPY herbicidal rating ([5]; 0.0320 kg/ha) | SAGPY herbicidal rating ([5]; 0.0620 kg/ha) | SAGPY herbicidal rating ([5]; 0.1250 kg/ha) | CYPIR herbicidal rating ([2]; 0.0320 kg/ha) | CYPIR herbicidal rating ([2]; 0.0620 kg/ha) | CYPIR herbicidal rating ([2]; 0.1250 kg/ha) | CYPIR herbicidal rating ([2]; 0.2500 kg/ha) | ECHORC herbicidal rating ([3]; 0.0320 kg/ha) | ECHORC herbicidal rating ([3]; 0.0620 kg/ha) | further results
1 | CCCCS(=O)(=O)OC(C)c1nsc2ccc(-n3c(=O)cc(C(F)(F)F)n(C)c3=O)cc12 (stereo not drawn) [Example 414, 2,4(1H,3H)-Pyrimidinedione, 3-[3-(1-hydroxyethyl)-1,2-benzisothiazol-5-yl]-1-methyl-6-(trifluoromethyl)-, butanesulfonate (ester)] | 0.0 | 2.0 | 6.0 | 9.0 | 0.0 | 0.0 | 2.0 | 7.0 | 7.0 | 7.0 | 7.0 |  |  |  |  |  |  |  |  |  | CYPSE ([1]; 0.0320 kg/ha): 0.0; CYPSE ([1]; 0.2500 kg/ha): 9.0
2 | CC(C)N(C(C)C)S(=O)(=O)NC(=O)C(C)(C)c1nsc2ccc(-n3c(=O)cc(C(F)(F)F)n(C)c3=O)cc12 [Example 511, 1,2-Benzisothiazole-3-acetamide, 5-[3,6-dihydro-3-methyl-2,6-dioxo-4-(trifluoromethyl)-1(2H)-pyrimidinyl]-N-(diisopropylsulfamoyl)-alpha, alpha-dimethyl-] |  |  |  |  |  |  |  |  |  |  |  | 0.0 | 0.0 | 0.0 | 0.0 | 0.0 | 2.0 | 7.0 | 0.0 | 2.0 | CYPSE herbicidal rating ([1]; 0.0320 kg/ha): 0.0; CYPSE herbicidal rating ([1]; 0.0620 kg/ha): 0.0; CYPSE herbicidal rating ([1]; 0.1250 kg/ha): 3.0; CYPSE herbicidal rating ([1]; 0.2500 kg/ha): 3.0; SAGPY herbicidal rating ([5]; 0.2500 kg/ha): 7.0; ECHORC herbicidal rating ([3]; 0.1250 kg/ha): 5.0; ECHORC herbicidal rating ([3]; 0.2500 kg/ha): 7.0
3 | COC(=O)[C@@H](C)Oc1ccc(C)cc1-c1nsc2ccc(-n3c(=O)cc(C(F)(F)F)n(C)c3=O)cc12 [Example 14, Methyl 2-{{2-{5-[3,6-dihydro-3-methyl-2,6-dioxo-4-(trifluoromethyl)-1(2H)-pyrimidinyl]-1,2-benzisothiazol-3-yl}-p-tolyl}oxy}propionate, (R)-] |  |  |  |  |  |  |  |  |  |  |  |  |  |  |  |  |  |  |  |  | herbicidal effect rating, SAGPY ([5]; in vivo): 0.0; herbicidal effect rating, ECHORC ([3]; in vivo): 7.5 and 6.5 and 5.0 and 4.0; herbicidal effect rating, MOOVA ([4]; in vivo): 9.0
4 | Cn1c(C(F)(F)F)cc(=O)n(-c2ccc3snc(C(=O)NOS(=O)(=O)O)c3c2)c1=O [Example 417, 1,2-Benzisothiazole-3-carbohydroxamic acid, 5-[3,6-dihydro-3-methyl-2,6-dioxo-4-(trifluoromethyl)-1(2H)-pyrimidinyl]-, hydrogen sulfate (ester)] | 4.0 | 4.0 | 5.0 | 6.0 | 0.0 | 0.0 | 3.0 | 3.0 | 6.0 | 9.0 | 9.0 |  |  |  |  |  |  |  |  |  | CYPSE ([1]; 0.1250 kg/ha): 3.0; MOOVA ([4]; 0.0320 kg/ha): 6.0
5 | COCC(=O)OCc1nsc2ccc(-n3c(=O)cc(C(F)(F)F)n(C)c3=O)cc12 [Example 495, 2,4(1H,3H)-Pyrimidinedione, 3-[3-(hydroxymethyl)-1,2-benzisothiazol-5-yl]-1-methyl-6-(trifluoromethyl)-, methoxyacetate (ester)] |  |  |  |  |  |  |  |  |  |  |  | 0.0 | 0.0 | 3.0 | 6.0 | 6.0 | 7.0 | 9.0 | 3.0 | 4.0 | ECHORC herbicidal rating ([3]; 0.1250 kg/ha): 5.0; ECHORC herbicidal rating ([3]; 0.2500 kg/ha): 7.0; MOOVA herbicidal rating ([4]; 0.0320 kg/ha): 7.0; MOOVA herbicidal rating ([4]; 0.0620 kg/ha): 7.0; MOOVA herbicidal rating ([4]; 0.1250 kg/ha): 9.0; MOOVA herbicidal rating ([4]; 0.2500 kg/ha): 9.0
